Results as given in PubChem BioAssay AID1963431 (Molecular Pharmacology Branch, DTP, NCI, 2024).

Tested on: Rh18 complex spheroid viability, percent test/control
Assay: Anticancer human tumor Rh18 cell line growth inhibition [Asc];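 also: spheroids exposed to compound for 7 days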;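 as to viability, T/C: 100% = DMSO vehicle control wells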
Conditions: for IC50: curve of first compound; for viability, T/C: stronger effect = lower value; active = viability on the fitted dose curve at most 10% of control; inactive = the rest
Method in brief: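 Complex solid-tumor spheroids incorporating human endothelial and mesenchymal stem cells received single agents or combinations over half-log dilution ranges anchored to clinical Cmax.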

[1] = second compound 0.1 µM, first compound 0.0316 µM
[2] = second compound 0.1 µM, first compound 0.1 µM
[3] = second compound 0.1 µM, first compound 0.316 µM
[4] = second compound 0.1 µM, first compound 1 µM
[5] = second compound 0.1 µM, first compound 3.16 µM
[6] = second compound 0.1 µM, first compound 10 µM
[7] = second compound 0.316 µM, first compound 0.0316 µM
[8] = second compound 0.316 µM, first compound 0.1 µM
[9] = second compound 0.316 µM, first compound 0.316 µM
[10] = second compound 0.316 µM, first compound 1 µM
[11] = second compound 0.316 µM, first compound 3.16 µM
[12] = second compound 0.316 µM, first compound 10 µM
[13] = second compound 1 µM, first compound 0.0316 µM
[14] = second compound 1 µM, first compound 0.1 µM
[15] = second compound 1 µM, first compound 0.316 µM
[16] = second compound 1 µM, first compound 1 µM
[17] = second compound 1 µM, first compound 3.16 µM
[18] = second compound 1 µM, first compound 10 µM
[19] = second compound 3.16 µM, first compound 0.0316 µM
[20] = second compound 3.16 µM, first compound 0.1 µM
[21] = second compound 10 µM, first compound 0.0316 µM
[22] = second compound 10 µM, first compound 0.1 µM

C=C(F)C(=O)N1CCN(c2nc(OCC3CCCN3C)nc3c2CCN(c2cccc4cccc(Cl)c24)C3)CC1CC#N (stereo not given) + CNC(C)C(=O)NC1CN(S(=O)(=O)c2cccc(S(=O)(=O)N3CCC4CCC(C(=O)NC(c5ccccc5)c5ccccc5)N4C(=O)C(NC(=O)C(C)NC)C3)c2)CCC2CCC(C(=O)NC(c3ccccc3)c3ccccc3)N2C1=O
152 nM: IC50 (second compound 0.0316 µM)
< 31.6 nM: IC50 (second compound 0.1 µM) | IC50 (second compound 0.316 µM) | IC50 (second compound 1 µM)
484 nM: IC50 (second compound 0.01 µM)
active: viability, T/C (second compound 0.01 µM, first compound 10 µM) 0.19% | viability, T/C (second compound 0.0316 µM, first compound 10 µM) 0.18% | viability, T/C [6] 0.19% | viability, T/C [12] 0.19% | viability, T/C [18] 0.2%
inactive: viability, T/C (second compound 0.01 µM, first compound 0.0316 µM) 71% | viability, T/C (second compound 0.01 µM, first compound 0.1 µM) 70.1% | viability, T/C (second compound 0.01 µM, first compound 0.316 µM) 53.5% | viability, T/C (second compound 0.01 µM, first compound 1 µM) 40.7% | viability, T/C (second compound 0.01 µM, first compound 3.16 µM) 16.2% | viability, T/C (second compound 0.0316 µM, first compound 0.0316 µM) 46.5% | viability, T/C (second compound 0.0316 µM, first compound 0.1 µM) 62.6% | viability, T/C (second compound 0.0316 µM, first compound 0.316 µM) 39.8% | viability, T/C (second compound 0.0316 µM, first compound 1 µM) 39.7% | viability, T/C (second compound 0.0316 µM, first compound 3.16 µM) 14.8% | viability, T/C [1] 41.6% | viability, T/C [2] 42.2% | viability, T/C [3] 43.8% | viability, T/C [4] 34.4% | viability, T/C [5] 10.1% | viability, T/C [7] 49.4% | viability, T/C [8] 49% | viability, T/C [9] 47.7% | viability, T/C [10] 39.2% | viability, T/C [11] 10.8% | viability, T/C [13] 42.3% | viability, T/C [14] 45.3% | viability, T/C [15] 37.7% | viability, T/C [16] 31.3% | viability, T/C [17] 6.38%

CCN1C(C(=O)NC23CCC(C(=O)O)(CC2)CC3)C(c2cccc(Cl)c2F)C2(C(=O)Nc3cc(Cl)ccc32)C12CCCCC2 (stereo not given) + CNC(C)C(=O)NC1CN(S(=O)(=O)c2cccc(S(=O)(=O)N3CCC4CCC(C(=O)NC(c5ccccc5)c5ccccc5)N4C(=O)C(NC(=O)C(C)NC)C3)c2)CCC2CCC(C(=O)NC(c3ccccc3)c3ccccc3)N2C1=O
< 9.49 nM: IC50 (second compound 0.01 µM) | IC50 (second compound 0.0316 µM) | IC50 (second compound 0.1 µM) | IC50 (second compound 0.316 µM) | IC50 (second compound 1 µM)
active: viability, T/C (second compound 0.01 µM, first compound 0.949 µM) 10.8% | viability, T/C (second compound 0.01 µM, first compound 3 µM) 7.5% | viability, T/C (second compound 0.0316 µM, first compound 0.949 µM) 10.3% | viability, T/C (second compound 0.0316 µM, first compound 3 µM) 7.98% | viability, T/C (second compound 0.1 µM, first compound 3 µM) 8.21% | viability, T/C (second compound 0.316 µM, first compound 3 µM) 10.4% | viability, T/C (second compound 1 µM, first compound 3 µM) 9.28%
inactive: viability, T/C (second compound 0.01 µM, first compound 0.00949 µM) 33% | viability, T/C (second compound 0.01 µM, first compound 0.03 µM) 26.5% | viability, T/C (second compound 0.01 µM, first compound 0.0949 µM) 19.7% | viability, T/C (second compound 0.01 µM, first compound 0.3 µM) 11.7% | viability, T/C (second compound 0.0316 µM, first compound 0.00949 µM) 28.5% | viability, T/C (second compound 0.0316 µM, first compound 0.03 µM) 21.7% | viability, T/C (second compound 0.0316 µM, first compound 0.0949 µM) 16.3% | viability, T/C (second compound 0.0316 µM, first compound 0.3 µM) 11.6% | viability, T/C (second compound 0.1 µM, first compound 0.00949 µM) 20.6% | viability, T/C (second compound 0.1 µM, first compound 0.03 µM) 18.6% | viability, T/C (second compound 0.1 µM, first compound 0.0949 µM) 14.6% | viability, T/C (second compound 0.1 µM, first compound 0.3 µM) 13.5% | viability, T/C (second compound 0.1 µM, first compound 0.949 µM) 10.5% | viability, T/C (second compound 0.316 µM, first compound 0.00949 µM) 21% | viability, T/C (second compound 0.316 µM, first compound 0.03 µM) 18.1% | viability, T/C (second compound 0.316 µM, first compound 0.0949 µM) 17.7% | viability, T/C (second compound 0.316 µM, first compound 0.3 µM) 14.1% | viability, T/C (second compound 0.316 µM, first compound 0.949 µM) 9.49% | viability, T/C (second compound 1 µM, first compound 0.00949 µM) 19.9% | viability, T/C (second compound 1 µM, first compound 0.03 µM) 17.2% | viability, T/C (second compound 1 µM, first compound 0.0949 µM) 15.9% | viability, T/C (second compound 1 µM, first compound 0.3 µM) 13.7% | viability, T/C (second compound 1 µM, first compound 0.949 µM) 11.8%

Cn1ncnc1[C@H]1c2n[nH]c(=O)c3cc(F)cc(c23)N[C@@H]1c1ccc(F)cc1 + Cc1c(S(C)(=O)=O)c(-c2cc(F)cc(N3CCN(c4ccc(NS(=O)(=O)c5ccc(NC(CCN6CCC(C(=O)OCCCP(=O)(O)O)CC6)CSc6ccccc6)c(S(=O)(=O)C(F)(F)F)c5)cc4)CC3)c2)c(-c2ccc(Cl)cc2)n1C(C)C
inactive: viability, T/C (second compound 0.1 µM, first compound 0.000316 µM) 17.4% | viability, T/C (second compound 0.1 µM, first compound 0.001 µM) 14.9% | viability, T/C (second compound 0.1 µM, first compound 0.00316 µM) 17% | viability, T/C (second compound 0.1 µM, first compound 0.01 µM) 15.3% | viability, T/C [1] 13.6% | viability, T/C [2] 15.4% | viability, T/C (second compound 0.316 µM, first compound 0.000316 µM) 10.9% | viability, T/C (second compound 0.316 µM, first compound 0.001 µM) 11.7% | viability, T/C (second compound 0.316 µM, first compound 0.00316 µM) 10.6% | viability, T/C (second compound 0.316 µM, first compound 0.01 µM) 11.8% | viability, T/C [7] 11.4% | viability, T/C [8] 12.6% | viability, T/C (second compound 1 µM, first compound 0.000316 µM) 10.5%
active: viability, T/C (second compound 1 µM, first compound 0.001 µM) 9.96% | viability, T/C (second compound 1 µM, first compound 0.00316 µM) 7.96% | viability, T/C (second compound 1 µM, first compound 0.01 µM) 6.9% | viability, T/C [13] 8.38% | viability, T/C [14] 9.11% | viability, T/C (second compound 3.16 µM, first compound 0.000316 µM) 5.76% | viability, T/C (second compound 3.16 µM, first compound 0.001 µM) 7.46% | viability, T/C (second compound 3.16 µM, first compound 0.00316 µM) 5.55% | viability, T/C (second compound 3.16 µM, first compound 0.01 µM) 6.19% | viability, T/C [19] 6.82% | viability, T/C [20] 6.64% | viability, T/C (second compound 10 µM, first compound 0.000316 µM) 6.76% | viability, T/C (second compound 10 µM, first compound 0.001 µM) 6.12% | viability, T/C (second compound 10 µM, first compound 0.00316 µM) 6.36% | viability, T/C (second compound 10 µM, first compound 0.01 µM) 5.83% | viability, T/C [21] 6.8% | viability, T/C [22] 9.69%
< 0.316 nM: IC50 (second compound 0.1 µM) | IC50 (second compound 0.316 µM) | IC50 (second compound 1 µM) | IC50 (second compound 3.16 µM) | IC50 (second compound 10 µM)

O=C(c1cc(Cc2n[nH]c(=O)c3ccccc23)ccc1F)N1CCN(C(=O)C2CC2)CC1 + Cc1c(S(C)(=O)=O)c(-c2cc(F)cc(N3CCN(c4ccc(NS(=O)(=O)c5ccc(NC(CCN6CCC(C(=O)OCCCP(=O)(O)O)CC6)CSc6ccccc6)c(S(=O)(=O)C(F)(F)F)c5)cc4)CC3)c2)c(-c2ccc(Cl)cc2)n1C(C)C
active: viability, T/C [13] 8.79% | viability, T/C [14] 10.4% | viability, T/C [15] 9.85% | viability, T/C [16] 8.8% | viability, T/C [17] 11% | viability, T/C [18] 8.8% | viability, T/C [19] 6.37% | viability, T/C [20] 7.47% | viability, T/C (second compound 3.16 µM, first compound 0.316 µM) 8.14% | viability, T/C (second compound 3.16 µM, first compound 1 µM) 5.82% | viability, T/C (second compound 3.16 µM, first compound 3.16 µM) 8% | viability, T/C (second compound 3.16 µM, first compound 10 µM) 7.02% | viability, T/C [21] 4.38% | viability, T/C [22] 4.61% | viability, T/C (second compound 10 µM, first compound 0.316 µM) 6.78% | viability, T/C (second compound 10 µM, first compound 1 µM) 4.36% | viability, T/C (second compound 10 µM, first compound 3.16 µM) 5.03% | viability, T/C (second compound 10 µM, first compound 10 µM) 5.76%
< 31.6 nM: IC50 (second compound 0.1 µM) | IC50 (second compound 0.316 µM) | IC50 (second compound 1 µM) | IC50 (second compound 3.16 µM) | IC50 (second compound 10 µM)
inactive: viability, T/C [1] 14.8% | viability, T/C [2] 14.2% | viability, T/C [3] 14.6% | viability, T/C [4] 17.6% | viability, T/C [5] 18.5% | viability, T/C [6] 13.5% | viability, T/C [7] 9.83% | viability, T/C [8] 9.85% | viability, T/C [9] 10.5% | viability, T/C [10] 10.7% | viability, T/C [11] 16.4% | viability, T/C [12] 9.72%
